Target: T1, GST-human KRas166 (G12V) GPPNHP (Homo sapiens, UniProt P01116, G12V)
T1 construct: made in house; host or cells: E. coli C41(DE3)
Test: KRas small-molecule screening by SPR (Biacore T200)
Assay type: binding
Conditions: compound 100 uM, 5% DMSO buffer; immobilised GST-KRas166 (G12V) GPPNHP
Method: For SPR assays pGEX-KRAS(G12V) plasmid was transformed into E. coli C41(DE3). Bacterial cells were cultured at 37° C. to an OD600 of 0.6 and induced with IPTG (final 0.1 mM) at 18° C. over night. The GST fusion proteins were extracted from bacteria pellets after cell disruption in 140 mM NaCl, 2.7 mM KCl, 10 mM NaH2PO4, 1.8 mM KH2PO4, 1 mM EDTA, 2 mM MgCl2 pH 7.4 and purified by glutathione-sepharose column chromatography (GE Healthcare), eluting with 50 mM Tris-HCl pH8.0, 10 mM reduced glutathione, 1 mM DTT, 2 mM MgCl2. The eluted proteins were dialysed against 50 mM Tris-HCl pH8.0, 1 mM DTT, 2 mM MgCl2 and concentrated to 10 mg/ml using a Biomax-30 ULTRAFREE-15 centrifugal filter device (Millipore). Purified KRAS protein was loaded with GPPNHP as described elsewhere (Pacold et al., 2000). Loaded protein was then purified by gel filtration on a HiLoad Superdex-75 HR column (GE Healthcare) in 1×PBS pH7.4, 5 mM MgCl2 and concentrated for storage.
Protocol for KRas Small-Molecule Screening and Affinity Measurements by SPR
To a previously immobilized CM5 chip (GE Healthcare BR-1005-30) with anti GST antibody via amine coupling method, GST in channel 1 and GST-human KRas166 (G12V) GPPNHP in channel 2 were immobilised. GST was immobilised between 2,000 and 5,000 Response units. KRAS166 (G12V) was immobilized between 10,000 to 15,000 Response Units.
In a 96 well plate, compounds were diluted in […], 5 mM MgCl2 and 5% DMSO Buffer to a final concentration of 100 uM. DCAl was used as positive control. Experiment also included a solvent correction curve for 5% DMSO. Screening and evaluation of the protein immobilization and the compounds screening was done accordingly to the BIACORE T200 control and evaluation software.
Calculations for how many response units are required for a 1:1 ratio of compound/protein interaction are shown below. • Protein immobilisation: 10,000 RU; average fragment 300 Da in size. • Rmax=(MWA/MWL)×RL×SM • MWA is the molecular weight of the analyte in Da • MWL is the molecular weight of the ligand in Da • RL is the immobilization level in RU • SM is the molar stoichiometry (assume 1:1) • Rmax=300/47,500×10,000×1 • Rmax=63 RU. Cell Viability Assay protocols Assay 1

Compound	SPR Response Units [Response Units]
COc1cccc(-c2cccc3c2OC(CNC(=O)C2CCN(C)CC2)CO3)n1 (stereo not shown) [Example 50, 1-Methyl-piperidine-4-carboxylic acid [8-(6-methoxy-pyridin-2-yl)-2,3-dihydro-benzo[1,4]dioxin-2-ylmethyl]-amide]	14
COc1cccc(-c2cccc3c2O[C@H](CNC(=O)c2ccc(CN4CCN(C)CC4)o2)CO3)n1 [Example 51, 5-(4-Methyl-piperazin-1-ylmethyl)-furan-2-carboxylic acid [(R)-8-(6-methoxy-pyridin-2-yl)-2,3-dihydro-benzo[1,4]dioxin-2-ylmethyl]-amide]	32
CN1CCN(Cc2ccc(C(=O)NCC3COc4cccc(-c5cccc(=O)[nH]5)c4O3)o2)CC1 (stereo not shown) [Example 52, 5-(4-Methyl-piperazin-1-ylmethyl)-furan-2-carboxylic acid [8-(6-oxo-1,6-dihydro-pyridin-2-yl)-2,3-dihydro-benzo[1,4]dioxin-2-ylmethyl]-amide]	18
CN(C)CCOc1ccc(C(=O)NCC2COc3cccc(-c4cccc(=O)[nH]4)c3O2)cc1 (stereo not shown) [Example 53, 4-(2-dimethylamino-ethoxy)-N-[8-(6-oxo-1,6-dihydro-pyridin-2-yl)-2,3-dihydro-benzo[1,4]dioxin-2-ylmethyl]-benzamide]	52
CN(C)Cc1cccc(Nc2ccc(-c3cccc4c3OCCO4)nc2)c1 [Example 59, [6-(2,3-Dihydro-benzo[1,4]dioxin-5-yl)-pyridin-3-yl]-(3-dimethylaminomethyl-phenyl)-amine]	79
CN(C)Cc1cccc(Nc2ccc(-c3cccc4c3OCCO4)nn2)c1 [Example 67a, [6-(2,3-Dihydro-benzo[1,4]dioxin-5-yl)-pyridazin-3-yl]-(3-dimethylaminomethyl-phenyl)-amine]	31
c1ccc(CN2CCN(c3cccc4c3OCCO4)CC2)cc1 [Example 71, 1-Benzyl-4-(2,3-dihydro-benzo[1,4]dioxin-5-yl)-piperazine]	14
COc1nc(-c2cccc3c2OCCO3)ccc1Nc1cccc(CNC(=O)c2cn[nH]c2)c1 [Example 81, 1H-Pyrazole-4-carboxylic acid 3-[6-(2,3-dihydro-benzo[1,4]dioxin-5-yl)-2-methoxy-pyridin-3-ylamino]-benzylamide]	109
COc1nc(-c2cccc3c2OC(CNC(=O)C2CCOCC2)CO3)ccc1NC(=O)CC1CCN(C)CC1 (stereo not shown) [Example 82, Tetrahydro-pyran-4-carboxylic acid (8-{6-methoxy-5-[2-(1-methyl-piperidin-4-yl)-acetylamino]-pyridin-2-yl}-2,3-dihydro-benzo[1,4]dioxin-2-ylmethyl)-amide]	12
CN1CCN(Cc2ccc(C(=O)NCC3COc4cccc(-c5ccc(NCC6CCOCC6)cn5)c4O3)o2)CC1 (stereo not shown) [Example 83, 5-(4-Methyl-piperazin-1-ylmethyl)-furan-2-carboxylic acid (8-{5-[(tetrahydro-pyran-4-ylmethyl)-amino]-pyridin-2-yl}-2,3-dihydro-benzo[1,4]dioxin-2-ylmethyl)-amide]	16
CN1CCC(COc2ccc(-c3cccc4c3OCCO4)nn2)CC1 [Example 85, 3-(2,3-Dihydro-benzo[1,4]dioxin-5-yl)-6-(1-methyl-piperidin-4-ylmethoxy)-pyridazine]	20
COc1nc(-c2cccc3c2OCCO3)ccc1NC1CCN(C)C1 (stereo not shown) [Example 86, [6-(2,3-Dihydro-benzo[1,4]dioxin-5-yl)-2-methoxy-pyridin-3-yl]-(1-methyl-pyrrolidin-3-yl)-amine]	17
COc1nc(-c2cccc3c2O[C@H](CNC(=O)c2ccc(CN4CCN(C)CC4)o2)CO3)ccc1N [Example 87, 5-(4-Methyl-piperazin-1-ylmethyl)-furan-2-carboxylic acid [(R)-8-(5-amino-6-methoxy-pyridin-2-yl)-2,3-dihydro-benzo[1,4]dioxin-2-ylmethyl]-amide]	56
COc1nc(-c2cccc3c2OC(CNC(=O)C2CCOCC2)CO3)ccc1Nc1cccnc1 (stereo not shown) [Example 88, Tetrahydro-pyran-4-carboxylic acid {8-[6-methoxy-5-(pyridin-3-ylamino)-pyridin-2-yl]-2,3-dihydro-benzo[1,4]dioxin-2-ylmethyl]-amide]	161
COc1nc(-c2cccc3c2OC(CNC(=O)C2CCOCC2)CO3)ccc1Nc1ccc(C(=O)NCCO)cc1 (stereo not shown) [Example 89, Tetrahydro-pyran-4-carboxylic acid (8-{5-[4-(2-hydroxy-ethylcarbamoyl)-phenylamino]-6-methoxy-pyridin-2-yl}-2,3-dihydro-benzo[1,4]dioxin-2-ylmethyl)-amide]	132
COc1nc(-c2cccc3c2OC(CNC(=O)C2CCOCC2)CO3)ccc1Nc1cccc(CN2CCN(C(C)=O)CC2)c1 (stereo not shown) [Example 90, Tetrahydro-pyran-4-carboxylic acid (8-{5-[3-(4-acetyl-piperazin-1-ylmethyl)-phenylamino]-6-methoxy-pyridin-2-yl}-2,3-dihydro-benzo[1,4]dioxin-2-ylmethyl)-amide]	140
CN1CCC(NC(=O)c2ccc(Nc3ccc(-c4cccc5c4OC(CNC(=O)C4CCOCC4)CO5)nc3)cc2)CC1 (stereo not shown) [Example 91]	66
CN1CCC(CC(=O)Nc2ccc(-c3cccc4c3O[C@H](CNC(=O)C3CCOCC3)CO4)nc2)CC1 [Example 92, Tetrahydro-pyran-4-carboxylic acid ((R)-8-{5-[2-(1-methyl-piperidin-4-yl)-acetylamino]-pyridin-2-yl}-2,3-dihydro-benzo[1,4]dioxin-2-ylmethyl)-amide]	7
CN(C)Cc1cccc(Nc2ccc(-c3cccc4c3OC(CNC(=O)C3CCOCC3)CO4)nc2)c1 (stereo not shown) [Example 93]	39
COc1nc(-c2cccc3c2OC(CNC(=O)C2CCOCC2)CO3)ccc1Nc1ccc(C(=O)N(C)C)cc1 (stereo not shown) [Example 94, Tetrahydro-pyran-4-carboxylic acid {8-[5-(4-dimethyl-carbamoyl-phenylamino)-6-methoxy-pyridin-2-yl]-2,3-dihydro-benzo[1,4]dioxin-2-ylmethyl}-amide]	111
COc1nc(-c2cccc3c2OCCO3)ccc1NC1CCN(C)CC1 [Example 98, [6-(2,3-Dihydro-benzo[1,4]dioxin-5-yl)-2-methoxy-pyridin-3-yl]-(1-methyl-piperidin-4-yl)-amine]	21
COc1nc(-c2cccc3c2OCCO3)ccc1NC1CCN(C(C)=O)CC1 [Example 99, 1-{4-[6-(2,3-Dihydro-benzo[1,4]dioxin-5-yl)-2-methoxy-pyridin-3-ylamino]-piperidin-1-yl}-ethanone]	33

Source: patent US12024506B2, “Compounds” (Oxford University Innovation Limited, priority 2018, dated 2024)
